From patent publication US9120752B2, “Pyridine compounds as sodium channel blockers” (Purdue Pharma, L.P., priority 2010, dated 2015) come the findings set out here.

The target of the first assay is human Nav1.7 (Homo sapiens (Human), UniProt Q15858). The experiment in a line: FLIPR or FLIPR TETRA sodium dye assay with KCl and test article pre-incubation. The assay is classed as cell-based. As to conditions: sodium dye assay with KCl; recombinant Nav1.7/HEK293 cells; read-out: Nav1.7 IC50 (μM) ± SEM.
Chain of human Nav1.7 (Q15858 other isoform, or with tags, fused parts or gaps): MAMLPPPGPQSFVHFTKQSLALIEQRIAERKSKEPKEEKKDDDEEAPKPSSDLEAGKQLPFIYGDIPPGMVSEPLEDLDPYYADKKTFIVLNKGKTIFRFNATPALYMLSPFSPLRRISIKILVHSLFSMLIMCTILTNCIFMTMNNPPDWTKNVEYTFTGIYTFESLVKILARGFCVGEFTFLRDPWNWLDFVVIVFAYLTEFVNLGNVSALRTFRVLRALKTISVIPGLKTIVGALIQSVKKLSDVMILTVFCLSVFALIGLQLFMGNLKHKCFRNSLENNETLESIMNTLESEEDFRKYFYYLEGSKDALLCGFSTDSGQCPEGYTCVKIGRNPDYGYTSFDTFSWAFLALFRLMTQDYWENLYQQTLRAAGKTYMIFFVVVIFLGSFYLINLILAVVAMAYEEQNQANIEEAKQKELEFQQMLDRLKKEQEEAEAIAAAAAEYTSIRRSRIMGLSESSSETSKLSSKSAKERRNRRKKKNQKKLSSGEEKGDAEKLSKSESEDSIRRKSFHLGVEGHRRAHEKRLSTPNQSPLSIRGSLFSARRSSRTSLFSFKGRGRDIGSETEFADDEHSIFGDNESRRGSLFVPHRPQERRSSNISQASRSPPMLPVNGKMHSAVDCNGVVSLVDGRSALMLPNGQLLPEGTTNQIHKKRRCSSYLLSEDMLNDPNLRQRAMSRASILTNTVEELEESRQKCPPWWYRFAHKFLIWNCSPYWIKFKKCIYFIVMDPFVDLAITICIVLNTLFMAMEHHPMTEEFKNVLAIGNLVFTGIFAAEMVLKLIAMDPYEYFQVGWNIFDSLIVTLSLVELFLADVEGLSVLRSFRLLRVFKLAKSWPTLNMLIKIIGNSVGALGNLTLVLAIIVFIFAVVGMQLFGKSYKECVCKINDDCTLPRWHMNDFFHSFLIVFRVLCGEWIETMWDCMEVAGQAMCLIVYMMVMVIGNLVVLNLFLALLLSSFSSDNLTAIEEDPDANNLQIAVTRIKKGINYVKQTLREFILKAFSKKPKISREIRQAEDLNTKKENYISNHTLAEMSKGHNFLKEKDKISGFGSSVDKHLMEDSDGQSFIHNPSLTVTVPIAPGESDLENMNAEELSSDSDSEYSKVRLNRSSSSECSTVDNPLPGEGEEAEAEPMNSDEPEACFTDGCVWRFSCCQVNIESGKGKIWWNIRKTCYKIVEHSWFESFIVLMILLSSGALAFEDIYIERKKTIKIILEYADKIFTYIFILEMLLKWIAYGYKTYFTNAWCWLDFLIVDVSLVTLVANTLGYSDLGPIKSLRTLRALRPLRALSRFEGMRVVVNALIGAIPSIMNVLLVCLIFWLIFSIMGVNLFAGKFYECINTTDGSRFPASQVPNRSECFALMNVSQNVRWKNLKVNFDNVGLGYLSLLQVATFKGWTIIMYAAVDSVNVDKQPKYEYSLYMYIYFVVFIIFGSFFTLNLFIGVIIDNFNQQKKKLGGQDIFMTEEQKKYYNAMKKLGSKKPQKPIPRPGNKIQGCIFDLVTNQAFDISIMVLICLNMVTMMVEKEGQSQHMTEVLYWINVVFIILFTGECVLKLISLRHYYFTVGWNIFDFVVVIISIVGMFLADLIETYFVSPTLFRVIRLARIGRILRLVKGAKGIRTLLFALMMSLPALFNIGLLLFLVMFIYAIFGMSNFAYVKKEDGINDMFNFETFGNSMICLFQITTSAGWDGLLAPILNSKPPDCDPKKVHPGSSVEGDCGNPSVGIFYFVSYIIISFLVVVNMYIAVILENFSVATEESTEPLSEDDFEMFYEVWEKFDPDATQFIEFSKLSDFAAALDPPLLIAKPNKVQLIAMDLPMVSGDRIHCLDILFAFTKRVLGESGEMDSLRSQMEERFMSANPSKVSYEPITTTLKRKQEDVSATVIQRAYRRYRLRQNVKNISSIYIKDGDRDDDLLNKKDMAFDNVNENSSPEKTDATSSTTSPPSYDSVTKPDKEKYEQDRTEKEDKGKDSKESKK
One may read the IC50 as the point on the concentration scale where inhibition reaches its midpoint. Take `N#Cc1cccc(S(=O)(=O)NCCNC(=O)c2cccc(-c3ccc(Oc4ccc(F)cc4)cc3)n2)c1` [Compound 24, N-(2-(3-cyanophenylsulfonamido)ethyl)-6-(4-(4-fluorophenoxy)phenyl)picolinamide]: the IC50 turned out to be 0.03 ± 0.04 µM.

In the case of `NC(=O)[C@@H](Cc1c[nH]c2ccccc12)NC(=O)c1cccc(-c2ccc(Oc3ccc(F)cc3)cc2)n1` [Compound 37, 6-[4-(4-fluoro-phenoxy)-phenyl]-pyridine-2-carboxylic acid [(R)-1-carbamoyl-2-(1H-indol-3-yl)-ethyl]-amide], the IC50 was 4.02 ± 2.78 µM.

In the case of `NC(=O)C[C@H](NC(=O)c1cccc(-c2ccc(Oc3ccc(F)cc3)cc2)n1)C(N)=O` [Compound 39, (S)-2-({6-[4-(4-fluoro-phenoxy)-phenyl]-pyridine-2-carbonyl}-amino)-succinamide], the IC50 worked out at 0.75 ± 0.05 µM.

Consider `NC(=O)[C@@H](CO)NC(=O)c1cccc(-c2ccc(Oc3ccc(F)cc3)cc2)n1` [Compound 40, 6-[4-(4-fluoro-phenoxy)-phenyl]-pyridine-2-carboxylic acid ((R)-1-carbamoyl-2-hydroxyl-ethyl)-amide], for which the IC50 is 1.32 ± 0.16 µM.

For the compound `NC(=O)[C@H](Cc1ccccc1)NC(=O)c1cccc(-c2ccc(Oc3ccc(F)cc3)cc2)n1` [Compound 41, 6-[4-(4-fluoro-phenoxy)-phenyl]-pyridine-2-carboxylic acid ((S)-1-carbamoyl-2-phenyl-ethyl)-amide], the IC50 was greater than 20 µM.

As to `NC(=O)[C@@H]1CCCN1C(=O)c1cccc(-c2ccc(Oc3ccc(F)cc3)cc2)n1` [Compound 42, (S)-1-{6-[4-(4-fluoro-phenoxy)-phenyl]-pyridine-2-carbonyl}-pyrrolidine-2-carboxylic acid amide], the IC50 was found to be 2.12 ± 0.35 µM.

Turning to `CC(O)[C@H](NC(=O)c1cccc(-c2ccc(Oc3ccc(F)cc3)cc2)n1)C(N)=O` (stereo partly drawn) [Compound 43, 6-[4-(4-fluoro-phenoxy)-phenyl]-pyridine-2-carboxylic acid ((S)-1-carbamoyl-2-hydroxy-propyl)-amide], the IC50 was 1.56 ± 0.5 µM.

Take `CC(C)C[C@H](NC(=O)c1cccc(-c2ccc(Oc3ccc(F)cc3)cc2)n1)C(N)=O` [Compound 44, 6-[4-(4-fluoro-phenoxy)-phenyl]-pyridine-2-carboxylic acid ((S)-1-carbamoyl-3-methyl-butyl)-amide]: the IC50 is 0.34 ± 0.07 µM.

As for `NC(=O)[C@H](Cc1cccnc1)NC(=O)c1cccc(-c2ccc(Oc3ccc(F)cc3)cc2)n1` [Compound 45, (S)—N-(1-amino-1-oxo-3-(pyridin-3-yl)propan-2-yl)-6-(4-(4-fluorophenoxy)phenyl)picolinamide], the IC50 was 0.21 ± 0.04 µM.

Consider `CC(C)[C@H](NC(=O)c1cccc(-c2ccc(Oc3ccc(F)cc3)cc2)n1)C(N)=O` [Compound 46, 6-[4-(4-fluoro-phenoxy)-phenyl]-pyridine-2-carboxylic acid ((S)-1-carbamoyl-2-methyl-propyl)-amide], for which the IC50 came out at 0.61 ± 0.05 µM.

For `NC(=O)[C@H](CO)NC(=O)c1cccc(-c2ccc(Oc3ccc(F)cc3)cc2)n1` [Compound 47, 6-[4-(4-fluoro-phenoxy)-phenyl]-pyridine-2-carboxylic acid ((S)-1-carbamoyl-2-hydroxy-ethyl)-amide], the IC50 turned out to be 1.53 ± 0.33 µM.

Take `NC(=O)[C@H](Cc1ccc(O)cc1)NC(=O)c1cccc(-c2ccc(Oc3ccc(F)cc3)cc2)n1` [Compound 48, 6-[4-(4-fluoro-phenoxy)-phenyl]-pyridine-2-carboxylic acid [(S)-1-carbamoyl-2-(4-hydroxy-phenyl)-ethyl]-amide]: the IC50 amounted to 0.55 ± 0.08 µM.

Consider `NC(=O)[C@H](Cc1c[nH]cn1)NC(=O)c1cccc(-c2ccc(Oc3ccc(F)cc3)cc2)n1` [Compound 49, 6-[4-(4-fluoro-phenoxy)-phenyl]-pyridine-2-carboxylic acid [(S)-1-carbamoyl-2-(1H-imidazol-4-yl)-ethyl]-amide], for which the IC50 was 0.33 ± 0.02 µM.

For the compound `NCCCC[C@H](NC(=O)c1cccc(-c2ccc(Oc3ccc(F)cc3)cc2)n1)C(N)=O` [Compound 51, (S)—N-(1,6-diamino-1-oxohexan-2-yl)-6-(4-(4-fluorophenoxy)phenyl)picolinamide], the IC50 came out at 2.89 ± 0.33 µM.

In the case of `N#Cc1cccc(S(=O)(=O)N2CCN(C(=O)c3cccc(Oc4ccc(F)cc4)n3)CC2)c1` [Compound 55, 3-((4-(6-(4-fluorophenoxy)picolinoyl)piperazin-1-yl)sulfonyl)benzonitrile], the IC50 stood at 5.94 ± 0.73 µM.

Take `N#Cc1cccc(S(=O)(=O)N2CCN(C(=O)c3cccc(-c4ccc(F)cc4)n3)CC2)c1` [Compound 56, 3-((4-(6-(4-fluorophenyl)picolinoyl)piperazin-1-yl)sulfonyl)benzonitrile]: the IC50 turned out to be 6.81 ± 0.57 µM.

Take `N#Cc1cccc(S(=O)(=O)N2CCN(C(=O)c3cc([C@H](O)CO)cc(-c4ccc(Oc5ccc(F)cc5)cc4)n3)CC2)c1` [Compound 58, (S)-3-((4-(4-(1,2-dihydroxyethyl)-6-(4-(4-fluorophenoxy)phenyl)picolinoyl)piperazin-1-yl)sulfonyl)benzonitrile]: the IC50 came to 2.31 ± 0.62 µM.

Regarding `N#Cc1cc(S(=O)(=O)N2CCN(C(=O)c3cccc(-c4ccc(Oc5ccc(F)cc5)cc4)n3)CC2)ccc1F` [Compound 59], the IC50 amounted to 0.34 ± 0.13 µM.

As to `CN1CCOc2cc(S(=O)(=O)N3CCN(C(=O)c4cccc(-c5ccc(Oc6ccc(F)cc6)cc5)n4)CC3)ccc21` [Compound 60, (6-(4-(4-fluorophenoxy)phenyl)pyridin-2-yl)(4-((4-methyl-3,4-dihydro-2H-benzo[b][1,4]oxazin-7-yl)sulfonyl)piperazin-1-yl)methanone], the IC50 worked out at 0.78 ± 0.1 µM.

Consider `C[C@H](NC(=O)c1cccc(-c2ccc(Oc3ccc(C(F)(F)F)cn3)cc2)n1)C(N)=O` [Compound 61, (S)—N-(1-amino-1-oxopropan-2-yl)-6-(4-((5-(trifluoromethyl)pyridin-2-yl)oxy)phenyl)picolinamide], for which the IC50 was found to be 4.34 ± 0.73 µM.

Turning to `CC(C)C[C@H](NC(=O)c1cc([C@H](O)CO)cc(-c2ccc(Oc3ccc(F)cc3)cc2)n1)C(N)=O` [Compound 63, N—((S)-1-amino-4-methyl-1-oxopentan-2-yl)-4-((S)-1,2-dihydroxyethyl)-6-(4-(4-fluorophenoxy)phenyl)picolinamide], the IC50 was 0.814 ± 0.231 µM.

As for `NC(=O)C[C@H](NC(=O)c1cc([C@H](O)CO)cc(-c2ccc(Oc3ccc(F)cc3)cc2)n1)C(N)=O` [Compound 64, (S)-2-(4-((S)-1,2-dihydroxyethyl)-6-(4-(4-fluorophenoxy)phenyl)picolinamido)succinamide], the IC50 was greater than 20 µM.

Take `CC(C)C[C@H](NC(=O)c1cc([C@@H](O)CO)cc(-c2ccc(Oc3ccc(F)cc3)cc2)n1)C(N)=O` [Compound 65, N—((S)-1-amino-4-methyl-1-oxopentan-2-yl)-4-((R)-1,2-dihydroxyethyl)-6-(4-(4-fluorophenoxy)phenyl)picolinamide]: the IC50 is 1.56 ± 0.166 µM.

Turning to `NC(=O)C[C@H](NC(=O)c1cc([C@@H](O)CO)cc(-c2ccc(Oc3ccc(F)cc3)cc2)n1)C(N)=O` [Compound 66, (S)-2-(4-((R)-1,2-dihydroxyethyl)-6-(4-(4-fluorophenoxy)phenyl)picolinamido) succinamide], the IC50 is greater than 20 µM.

The next assay has as its system FCA-induced inflammation of the rat hind paw. In words: Freund's complete adjuvant (FCA) model of inflammatory pain, paw withdrawal threshold. The assay is classed as in vivo. As to conditions: 10 mg/kg, oral (PO), 3 h post administration. As to the method:
Each experiment uses rats weighing between 200-260 g at the start of the experiment. The rats are group-housed and have free access to food and water at all times, except prior to oral administration of a test compound when food is removed for 16 hours before dosing. A control group acts as a comparison to rats treated with a compound of Formulae I-XIII. The control group is administered the carrier as used for the test compound. The volume of carrier administered to the control group is the same as the volume of carrier and test compound administered to the test group.
To assess the actions of the compounds of Formulae I-XIII on the treatment of inflammatory pain the Freund's complete adjuvant (“FCA”) model of inflammatory pain was used. […] 24 hour post injection, the animal was assessed for response to noxious mechanical stimuli by determining the paw withdrawal threshold (PWT), or to noxious thermal stimuli by determining the paw withdrawal latency (PWL), as described below. […] Responses to noxious mechanical or thermal stimuli were determined 1, 3, and 5 hours post administration (admin). […]
Sensitivity to noxious mechanical stimuli can be measured in animals using the paw pressure test to assess mechanical hyperalgesia. […] PWT is determined once for each rat at each time point. PWT can be measured only in the injured paw, or in both the injured and non-injured paw. […]
In the case of `NC(=O)[C@H](CO)NC(=O)c1cccc(-c2ccc(Oc3ccc(F)cc3)cc2)n1` [Compound 47, 6-[4-(4-fluoro-phenoxy)-phenyl]-pyridine-2-carboxylic acid ((S)-1-carbamoyl-2-hydroxy-ethyl)-amide], the “increase in PWT (paw withdrawal threshold)” value is “statistically significant increase”.

The same assay, now with this note: 30 mg/kg, oral (PO), 1, 3 and 5 h post administration.
In the case of `NC(=O)[C@H](CO)NC(=O)c1cccc(-c2ccc(Oc3ccc(F)cc3)cc2)n1` [Compound 47, 6-[4-(4-fluoro-phenoxy)-phenyl]-pyridine-2-carboxylic acid ((S)-1-carbamoyl-2-hydroxy-ethyl)-amide], the “increase in PWT (paw withdrawal threshold)” value is recorded as “statistically significant increase”.
